Measured values as given in ChEMBL document CHEMBL5113540, “Fragment-Based Discovery of a Novel, Brain Penetrant, Orally Active HDAC2 Inhibitor” (ACS Med Chem Lett, 2022).
One block for each molecule: values may come before it. The source made the active and inactive calls. The calls are words filed in the database; no cut-off is given here.

Columns and labels:
[1] = biological target: T1, Histone deacetylase 2 (Homo sapiens, UniProt Q92769); test: Inhibition of full length recombinant C-terminal FLAG-tagged human HDAC2 expressed in baculovirus-infected Sf9 cells measured for 2 hrs by fluorescence-based assay
T1 sequence (Q92769 whole entry): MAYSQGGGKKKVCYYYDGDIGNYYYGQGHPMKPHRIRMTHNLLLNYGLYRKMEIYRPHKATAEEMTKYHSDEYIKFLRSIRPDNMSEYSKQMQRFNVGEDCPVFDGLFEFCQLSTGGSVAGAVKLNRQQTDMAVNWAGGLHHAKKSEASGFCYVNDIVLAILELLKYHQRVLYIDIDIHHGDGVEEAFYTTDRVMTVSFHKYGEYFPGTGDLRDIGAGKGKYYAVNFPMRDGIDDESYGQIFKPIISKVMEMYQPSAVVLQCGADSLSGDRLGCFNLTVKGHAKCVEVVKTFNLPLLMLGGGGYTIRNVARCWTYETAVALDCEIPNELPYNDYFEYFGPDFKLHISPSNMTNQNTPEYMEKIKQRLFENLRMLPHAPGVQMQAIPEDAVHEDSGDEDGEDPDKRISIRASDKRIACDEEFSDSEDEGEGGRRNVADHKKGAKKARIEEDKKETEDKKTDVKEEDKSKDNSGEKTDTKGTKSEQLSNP

[2] = biological target: T1, Histone deacetylase 2; test: Inhibition of full length recombinant C-terminal FLAG-tagged human HDAC2 expressed in baculovirus-infected Sf9 cells at 2 mM measured for 2 hrs by fluorescence-based assay relative to control
[3] = biological target: T1, Histone deacetylase 2; test: Inhibition of full length recombinant C-terminal FLAG-tagged human HDAC2 expressed in baculovirus-infected Sf9 cells at 1 mM measured for 2 hrs by fluorescence-based assay relative to control
[4] = Unbound brain-to-plasma concentration ratio in C57BL/6 mouse by LC-MS/MS analysis; assay type: ADME; conditions: read-out: K(p,uu,brain)
[5] = tested on: SK-N-SH; test: Inhibition of […] in human SK-N-SH cells assessed as increase in histone H3K9 acetylation level at 3 to 12 uM measured after 48 hrs by immunochemical detection based analysis; assay type: cell-based; conditions: dose 3-12 µM
[6] = Half life in C57BL/6 mouse brain at 30 mg/kg, po measured upto 24 hrs by LC-ESI-MS/MS analysis; assay type: ADME, organism-based
[7] = Cmax in C57BL/6 mouse brain at 100 mg/kg, po measured upto 6 hrs by LC-ESI-MS/MS analysis; assay type: ADME, organism-based; set-up: dose 100 mg/kg, time < 6 hrs, route po
[8] = Half life in C57BL/6 mouse plasma at 30 mg/kg, po measured upto 24 hrs by LC-ESI-MS/MS analysis; assay type: ADME, organism-based
[9] = tested on: SK-N-SH; test: Inhibition of […] in human SK-N-SH cells assessed as increase in histone H4K12 acetylation level at 3 to 12 uM measured after 48 hrs by immunochemical detection based analysis; assay type: cell-based; conditions: dose 3-12 µM
[10] = Half life in C57BL/6 mouse brain at 100 mg/kg, po measured upto 6 hrs by LC-ESI-MS/MS analysis; assay type: ADME, organism-based
[11] = Lipophilicity, log D of the compound at pH 7.4; assay type: physicochemical; conditions: buffer
[12] = AUC (0 to infinity) in C57BL/6 mouse plasma at 30 mg/kg, po measured upto 24 hrs by LC-ESI-MS/MS analysis; assay type: ADME, organism-based; set-up: time < 24 hrs, dose 30 mg/kg, route po
[13] = Cmax in C57BL/6 mouse plasma at 30 mg/kg, po measured upto 24 hrs by LC-ESI-MS/MS analysis; assay type: ADME, organism-based; set-up: time < 24 hrs, dose 30 mg/kg, route po
[14] = tested on: Mus musculus; test: In vivo inhibition of HDAC2 in C57BL/6 mouse assessed as increase in histone H4K12 acetylation in brain at 100 mg/kg, po measured after 4 hrs by immunochemical detection method; assay type: functional, organism-based
[15] = AUC (0 to infinity) in C57BL/6 mouse plasma at 100 mg/kg, po measured upto 24 hrs by LC-ESI-MS/MS analysis; assay type: ADME, organism-based; set-up: time < 24 hrs, dose 100 mg/kg, route po
[16] = AUC (0 to infinity) in C57BL/6 mouse brain at 100 mg/kg, po measured upto 6 hrs by LC-ESI-MS/MS analysis; assay type: ADME, organism-based; set-up: dose 100 mg/kg, time < 6 hrs, route po; conditions: in vivo
[17] = Half life in C57BL/6 mouse plasma at 100 mg/kg, po measured upto 24 hrs by LC-ESI-MS/MS analysis; assay type: ADME, organism-based
[18] = AUC (0 to infinity) in C57BL/6 mouse brain at 30 mg/kg, po measured upto 24 hrs by LC-ESI-MS/MS analysis; assay type: ADME, organism-based; set-up: dose 30 mg/kg, time < 24 hrs, route po; conditions: in vivo
[19] = Cmax in C57BL/6 mouse plasma at 100 mg/kg, po measured upto 24 hrs by LC-ESI-MS/MS analysis; assay type: ADME, organism-based; set-up: time < 24 hrs, dose 100 mg/kg, route po
[20] = Cmax in C57BL/6 mouse brain at 30 mg/kg, po measured upto 24 hrs by LC-ESI-MS/MS analysis; assay type: ADME, organism-based; set-up: dose 30 mg/kg, time < 24 hrs, route po

- IC50 [1]: 0.85 µM
SMILES: N#Cc1cccnc1N1CCN(C(=O)[C@H]2C[C@@H](c3cccc(Cl)c3)CN2)CC1

- IC50 [1]: 1.8 µM
SMILES: N#Cc1cccnc1N1CCN(C(=O)[C@H]2C[C@@H](c3ccccc3)CN2)CC1

- IC50 [1]: 2.8 µM
SMILES: O=C([C@H]1C[C@@H](c2cccc(Cl)c2)CN1)N1Cc2ccccc2C1

- IC50 [1]: 1.7 µM
SMILES: O=C([C@H]1C[C@@H](c2ccccc2)CN1)N1CCN(c2nccc3ccsc23)CC1

- Kp uu [4]: 0.36
- half-life [6]: 0.9 h
- Cmax [7]: 3400 ng/g
- half-life [8]: 1.1 h
- half-life [10]: 2.7 h
- logD [11]: 3.9
- AUC(0-inf) [12]: 4200 ng·h/mL
- Cmax [13]: 2400 ng/mL
- AUC(0-inf) [15]: 18500 ng·h/mL
- IC50 [1]: 0.5 µM
- AUC [16]: 13.1 µg·h/g
- half-life [17]: 3.5 h
- AUC [18]: 4 µg·h/g
- Cmax [19]: 4000 ng/mL
- Cmax [20]: 2300 ng/g
SMILES: O=C([C@H]1C[C@@H](c2cccc(Cl)c2)CN1)N1CCN(c2nccc3ccsc23)CC1
- inhibition [5]: Active
- inhibition [9]: Active
- inhibition [14]: Active

- IC50 [1]: 6.4 µM
SMILES: O=C([C@H]1C[C@@H](c2ccccc2)CN1)N1Cc2ccccc2C1

- IC50 [1]: 26 µM
SMILES: O=C([C@H]1C[C@@H](c2ccccc2)CN1)N1CCCC1

- IC50 [1]: 4 µM
SMILES: O=C([C@H]1C[C@@H](c2ccc(Cl)cc2)CN1)N1Cc2ccccc2C1

- IC50 [1]: 26 µM
SMILES: O=C1CCC(c2ccc([C@H]3CN[C@@H](C(=O)N4Cc5ccccc5C4)C3)cc2)N1 (stereo in doubt; 10)

Second part, the molecule before the results:

SMILES: CN(C)C(=O)[C@H](N)CCc1ccccc1
- inhibition [2]: 64%

SMILES: O=C(O)Cc1ccccc1
- inhibition [3]: 40%

SMILES: O=C1CCC(c2ccc(Cl)cc2)N1 (centres undefined)
- inhibition [3]: 9%

SMILES: N[C@H](CCc1ccccc1)C(=O)N1CCCC1
- IC50 [1]: 110 µM

SMILES: Cc1cc(O)cc(=O)o1
- inhibition [3]: 4%

SMILES: O=C1CCC(c2ccc([C@H]3CN[C@@H](C(=O)N4Cc5ccccc5C4)C3)cc2)N1 (stereo in doubt; 11)
- IC50 [1]: 18 µM

SMILES: CN(C)C(=O)C(N)Cc1ccc(F)cc1 (centres undefined)
- inhibition [3]: 58%
- IC50 [1]: 1000 µM
